Experimental data published in the NIST ThermoML archive (doi:10.1021/acs.jced.7b00221).

Assay: xn = mol fraction of the nth substance listed
Settings: 100 kPa, Liquid; for viscosity: Cone and plate viscometry; for mass density: Vibrating tube method

CCCCCCn1cc[n+](C)c1C.O=S(=O)([N-]S(=O)(=O)C(F)(F)F)C(F)(F)F + CCCCCCCCCCCCCC[P+](CCCCCC)(CCCCCC)CCCCCC.O=S(=O)([N-]S(=O)(=O)C(F)(F)F)C(F)(F)F
viscosity [mPa·s]
Settings | 278.15 K | 283.15 K | 288.15 K | 293.15 K | 298.15 K | 303.15 K | 308.15 K | 313.15 K | 318.15 K | 323.15 K
x2 = 0.2 | 707 | 483 | 336 | 242 | 179 | 136 | 106 | 84 | 68 | 55
x2 = 0.4 | 932 | 634 | 442 | 317 | 234 | 177 | 137 | 107 | 86 | 71
x2 = 0.596 | 1000 | 683 | 477 | 342 | 252 | 190 | 146 | 115 | 92 | 75
x2 = 0.749 | 1015 | 698 | 490 | 353 | 261 | 196 | 151 | 119 | 95 | 77
x2 = 0.898 | 1130 | 786 | 555 | 400 | 297 | 224 | 173 | 135 | 108 | 80

CC[P+](CC)(CC)COCCOC.O=S(=O)([N-]S(=O)(=O)C(F)(F)F)C(F)(F)F + CCCCCCCCCC[P+](CC)(CC)CC.O=[N+]([O-])c1cn[n-]c1
x2 = 0
Settings | viscosity [mPa·s]
278.15 K | 84
283.15 K | 65
288.15 K | 51

CCCCCC[n+]1ccn(C)c1.O=S(=O)([N-]S(=O)(=O)C(F)(F)F)C(F)(F)F + CCCCCCCC[P+](CC)(CC)CC.O=[N+]([O-])c1cn[n-]c1
x2 = 0
Settings | mass density [kg/m3]
283.15 K | 1385.6
288.15 K | 1381
293.15 K | 1376.5
295.15 K | 1374.6
298.15 K | 1371.9
303.15 K | 1367.3
308.15 K | 1362.8
313.15 K | 1358.3
318.15 K | 1353.7
323.15 K | 1349.2
328.15 K | 1344.7
333.15 K | 1340.3
338.15 K | 1335.8
343.15 K | 1331.4
348.15 K | 1326.9
353.15 K | 1322.5

CCCCCCn1cc[n+](C)c1C.O=S(=O)([N-]S(=O)(=O)C(F)(F)F)C(F)(F)F + CCCCCCCC[P+](CC)(CC)CC.O=[N+]([O-])c1cn[n-]c1
x2 = 0
Settings | mass density [kg/m3]
283.15 K | 1373
288.15 K | 1368.4
293.15 K | 1363.9
295.15 K | 1362.1
298.15 K | 1359.5
303.15 K | 1355.1
308.15 K | 1350.8
313.15 K | 1346.4
318.15 K | 1342
323.15 K | 1337.6
328.15 K | 1333.2
333.15 K | 1328.9
338.15 K | 1324.5
343.15 K | 1320.2
348.15 K | 1315.8
353.15 K | 1311.5

CC[P+](CC)(CC)COCCOC.O=S(=O)([N-]S(=O)(=O)C(F)(F)F)C(F)(F)F + CCCCCCC[P+](CC)(CC)CC.O=[N+]([O-])c1cn[n-]c1
x2 = 0
Settings | viscosity [mPa·s]
278.15 K | 84
283.15 K | 65
288.15 K | 51

CCCCCCCCCCCCCC[P+](CCCCCC)(CCCCCC)CCCCCC.O=S(=O)([N-]S(=O)(=O)C(F)(F)F)C(F)(F)F + CCCCCC[n+]1ccn(C)c1.O=S(=O)([N-]S(=O)(=O)C(F)(F)F)C(F)(F)F
viscosity [mPa·s]
Settings | 278.15 K | 283.15 K | 288.15 K | 293.15 K | 298.15 K | 303.15 K | 308.15 K | 313.15 K | 318.15 K | 323.15 K
x1 = 0.2 | 390 | 280 | 205 | 153 | 118 | 92 | 74 | 60 | – | –
x1 = 0.398 | 652 | 459 | 329 | 242 | 183 | 141 | 111 | 89 | 72 | 60
x1 = 0.596 | 873 | 611 | 434 | 316 | 236 | 180 | 140 | 111 | 90 | 73
x1 = 0.748 | 1019 | 706 | 500 | 362 | 270 | 204 | 158 | 124 | 100 | 81
x1 = 0.903 | 1114 | 774 | 547 | 396 | 293 | 221 | 171 | 134 | 107 | 86

CCCC[n+]1cccn1C.O=S(=O)([N-]S(=O)(=O)C(F)(F)F)C(F)(F)F [1-butyl-2-methylpyrazolium bis(trifluoromethylsulfonyl)imide] + CCCCCCSC(N(C)C)=[N+](C)C.O=S(=O)([N-]S(=O)(=O)C(F)(F)F)C(F)(F)F
mass density [kg/m3]
Settings | x2 = 0.251 | x2 = 0.502 | x2 = 0.748
283.15 K | 1431.2 | 1400.4 | 1375.8
288.15 K | 1426.6 | 1395.7 | 1371.4
293.15 K | 1421.9 | 1391.4 | 1366.9
295.15 K | 1420.1 | 1389.9 | 1365.1
298.15 K | 1417.3 | 1387.4 | 1362.4
303.15 K | 1412.7 | 1382 | 1357.9
308.15 K | 1408.1 | 1377.6 | 1353.5
313.15 K | 1403.5 | 1373.2 | 1349
318.15 K | 1398.9 | 1368.8 | 1344.6
323.15 K | 1394.3 | 1364.7 | 1340.2
328.15 K | 1389.7 | 1360.4 | 1335.8
333.15 K | 1385.2 | 1356 | 1331.4
338.15 K | 1380.6 | 1351.7 | 1327
343.15 K | 1376.1 | 1347.3 | 1322.6
348.15 K | 1371.6 | 1342.8 | 1318.3
353.15 K | 1367.1 | 1338.4 | 1313.9

CCCCCCn1cc[n+](C)c1C.O=[N+]([O-])c1cn[n-]c1 [1-hexyl-2,3-dimethylimidazolium 4-nitropyrazolide] + CCCCCCCC[P+](CC)(CC)CC.O=S(=O)([N-]S(=O)(=O)C(F)(F)F)C(F)(F)F
viscosity [mPa·s]
Settings | 278.15 K | 283.15 K | 288.15 K | 293.15 K | 298.15 K | 303.15 K | 308.15 K | 313.15 K | 318.15 K | 323.15 K
x1 = 0.101 | 401 | 284 | 204 | 151 | 115 | 90 | 72 | 57 | – | –
x1 = 0.299 | 620 | 421 | 293 | 211 | 156 | 120 | 93 | 74 | 60 | –
x1 = 0.499 | 992 | 636 | 423 | 292 | 209 | 154 | 118 | 91 | 72 | 59
x1 = 0.701 | 2252 | 1345 | 836 | 543 | 369 | 259 | 188 | 140 | 107 | 84
x1 = 0.899 | 6554 | 3416 | 1886 | 1108 | 689 | 450 | 307 | 216 | 157 | 119

CCCCCCn1cc[n+](C)c1.O=[N+]([O-])c1cn[n-]c1 [1-hexyl-3-methylimidazolium 4-nitropyrazolide] + CCCCCCCC[P+](CC)(CC)CC.O=S(=O)([N-]S(=O)(=O)C(F)(F)F)C(F)(F)F
viscosity [mPa·s]
Settings | 278.15 K | 283.15 K | 288.15 K | 293.15 K | 298.15 K | 303.15 K | 308.15 K | 313.15 K | 318.15 K | 323.15 K
x1 = 0.1 | 402 | 284 | 205 | 152 | 116 | 90 | 72 | 58 | – | –
x1 = 0.299 | 470 | 325 | 230 | 168 | 127 | 98 | 77 | 62 | 51 | –
x1 = 0.499 | 639 | 428 | 294 | 209 | 154 | 116 | 90 | 71 | 57 | –
x1 = 0.701 | 1045 | 660 | 432 | 295 | 209 | 154 | 116 | 90 | 71 | 57
x1 = 0.9 | 2181 | 1262 | 765 | 488 | 326 | 227 | 164 | 122 | 93 | 74

CCCCCCCCCC[P+](CC)(CC)CC.O=[N+]([O-])c1cn[n-]c1 [decyltriethylphosphonium 4-nitropyrazolide] + CC[P+](CC)(CC)COCCOC.O=S(=O)([N-]S(=O)(=O)C(F)(F)F)C(F)(F)F
viscosity [mPa·s]
Settings | 278.15 K | 283.15 K | 288.15 K | 293.15 K | 298.15 K | 303.15 K | 308.15 K | 313.15 K | 318.15 K | 323.15 K
x1 = 0.1 | 103 | 79 | 62 | 49 | – | – | – | – | – | –
x1 = 0.25 | 160 | 120 | 91 | 72 | 57 | – | – | – | – | –
x1 = 0.499 | 334 | 239 | 174 | 131 | 101 | 79 | 64 | 52 | – | –
x1 = 0.75 | 716 | 486 | 337 | 241 | 178 | 135 | 104 | 82 | 66 | 55
x1 = 0.9 | 1198 | 788 | 531 | 370 | 265 | 195 | 149 | 115 | 91 | 73
